Measured values: patent US20090054486A1, “POLYMORPHIC FORM XVI OF FEXOFENADINE HYDROCHLORIDE” (Teva Pharmaceuticals USA, Inc., priority 2002, published 2009)
Where a name gives a salt, the structure may show the parent alone.

Test: Storage stability against transformation to other crystalline forms
Type: physicochemical
Protocol: Fexofenadine hydrochloride Form XVI is substantially stable during storage. Fexofenadine hydrochloride Form XVI is stable against transformation to other crystalline forms upon storage at relative humidity of up to about 100% for at least about 1 week, and storage at about 40° C. and about 75% relative humidity for at least about 6 months. The conversion is preferably less than about 5%, more preferably less than about 2% by weight.
In another aspect, the present invention provides for processes for preparation of fexofenadine hydrochloride Form XVI, which allow preparing fexofenadine HCl form XVI substantially free of other polymorphic forms of fexofenadine HCl, including amorphous form. As used herein, “substantially free” refers to less than about 5% on a weight basis, preferably less than about 2%, weight of polymorphic forms other than Form XVI compared to the weight of all the polymorphic forms, including Form XVI. A suitable method for determining the presence of other polymorphic forms is with X-Ray Powder diffraction.

time stable against transformation to other crystalline forms upon storage (storage at about 40° C. and about 75% relative humidity): at least 6 months
time stable against transformation to other crystalline forms upon storage (storage at relative humidity of up to about 100%): at least 1 week
SMILES: CC(C)(C(=O)O)c1ccc(C(O)CCCN2CCC(C(O)(c3ccccc3)c3ccccc3)CC2)cc1 (stereo not drawn) [Fexofenadine hydrochloride Form XVI, 4-[4-[4-(hydroxydiphenylmethyl)-1-piperidinyl]-1-hydroxybutyl]-α,α-dimethylbenzeneacetic acid]
